One experiment relates to Fusarium oxysporum. The class given is cell-based. As to conditions: 0.5 ml of 1000 :g/ml analog in well, minimal medium, 28° C. As to the method:
Mutant selection. The inhibitory effect of valine and valine analogs was tested against the selected Fusarium spp., using a well zone-diffusion assay on a minimal medium. Seven available valine analogs were tested. The gradient plates were prepared as follows: Minimal media was poured into Petri dishes, then a disk (diameter=10 mm) of the solidified medium was cut out (with number 5 cutter) from the center of the plate and filled with the sterile solution of an analog (0.5 ml of a 1000 :g/ml of analog in sterile distilled H2O). The solution was gradually applied to the well and the plates were allowed to dry and form a gradient under the hood for 24 hours. A Fusarium oxysporum microconidia suspension of 10^7 sp/ml was obtained by washing a 10-14 day fungal culture grown on minimal medium (with nitrate) with 10 ml of sterile H2O. Five hundred :1 of the spore suspension was thoroughly spread across the plate with a glass rod. These plates were then incubated at 28° C.

The next experiment deals with Cannabis sativa. The class given is in vivo. As to the method: (§1) Amino Acid Toxicity Tests on Plants. Germinated seeds of Cannabis sativa, Papaver somniferum, and Nicotiana tobaccum were transferred to minimal medium (3% Sucrose (w/v), 1.7 g/l Yeast extract base without amino acids (Difco Laboratories, Detroit, Mich.), 16 g/l Ultrapure Agar (USB, Cleveland, Ohio)) supplemented with increasing concentrations of amino acids. Each amino acid was supplemented at eight concentrations (0 mM, 0.01 mM, 0.1 mM, 0.5 mM, 1 mM, 2 mM, 3 mM, 4 mM), and each treatment was replicated six times. Five pregerminated seeds were placed on each plate, per replication. Plates were incubated at ambient temperature with 12-hour diurnal period for two weeks. The fresh weight per seedling was calculated at the end of the experiment.

For the next experiment, the system named is Papaver somniferum. Nature of the experiment: Amino acid toxicity test on plants, Papaver somniferum seedlings. The format is in vivo. As to conditions: for reduction of fresh weight of P. somniferum seedlings: 1 mM; for inhibition of P. somniferum seedling growth compared with the other amino acids: in vivo; for reduction of fresh weight of P. somniferum seedlings vs control: 0.1 mM. As to the method:
as §1

The next experiment has as its system Nicotiana tobaccum. In words: Amino acid toxicity test on plants, tobacco seedlings. The class given is in vivo. As to conditions: 0.1 mM on agar media. As to the method: as §1

Results on eleven compounds are retold here after patent US6673746B1, “Virulence enhancement of bioherbicides” (priority 1999, dated 2004).

As to `CCC(C)C(=O)C(=O)O` (racemic) [DL-α-keto-β-methyl valeric acid], the “inhibitory effect on strains of F. oxysporum” value (“inhibitory effect on strains” for short) in the experiment with Fusarium oxysporum is given as “not inhibitory”.
As to `CC[C@H](N)C(=O)O` [L-amino-n- butyric acid], the “inhibitory effect on strains” value in the experiment with Fusarium oxysporum is on record as “not inhibitory”.
Still for that read-out and setting: to `CC(C)[C@H](N)C(N)=O` [L-valine amide] belongs “not inhibitory”.
Same read-out and setting: the result for `CC(C)[C@H](N)C(=O)NO` [L-valine hydroxamate] reads “not inhibitory”.
Still for that read-out and setting: to `CC(C)[C@H](N)CO` [L-valinol] belongs “not inhibitory”; to `CCC[C@H](N)C(=O)O` [Norvaline], “inhibitory”.
As to `CC(C)(S)[C@@H](N)C(=O)O` [penicillamine], the “inhibitory effect on strains” value with Fusarium oxysporum is recorded as “inhibitory”.
On to `N[C@@H](Cc1ccccc1)C(=O)O` [phenylalanine], for which the “reduction of fresh weight of C. sativa seedlings vs control” value in the experiment on Cannabis sativa (0.1 mM in minimal medium) is 40-45%. In the experiment on Papaver somniferum, the “reduction of fresh weight of P. somniferum seedlings” value was 20% and the “inhibition of P. somniferum seedling growth compared with the other amino acids” value was “less inhibitory”. In the experiment with Nicotiana tobaccum, the “reduction of fresh weight of tobacco seedlings vs control” value was 20%.
With `N[C@@H](Cc1c[nH]c2ccccc12)C(=O)O` [tryptophan], in the experiment on Papaver somniferum, the “reduction of fresh weight of P. somniferum seedlings” value is reported as 20% and the “inhibition of P. somniferum seedling growth compared with the other amino acids” value is “less inhibitory”. The “reduction of fresh weight of tobacco seedlings vs control” value in the experiment on Nicotiana tobaccum turned out to be 20%.
Regarding `N[C@@H](Cc1ccc(O)cc1)C(=O)O` [tyrosine], in the experiment with Cannabis sativa (1 mM in minimal medium), the “reduction of fresh weight of C. sativa seedlings” value is recorded as 25-30%. Moreover, the “inhibition of C. sativa seedlings compared with the other amino acids” value with Cannabis sativa (in vivo) is on record as “less inhibitory than other amino acids tested”. Besides, in the experiment on Papaver somniferum, the “reduction of fresh weight of P. somniferum seedlings vs control” value is listed as “about 40%”. Further, the “reduction of fresh weight of tobacco seedlings vs control” value in the experiment with Nicotiana tobaccum was 50-60%.
In the case of `CC(C)[C@H](N)C(=O)O` [valine], the “reduction of fresh weight of C. sativa seedlings vs control” value with Cannabis sativa (0.1 mM in minimal medium) came out at 50%. Further, the “fresh weight of C. sativa seedlings relative to control seedlings” value in the experiment with Cannabis sativa (0.1 mM in minimal medium, two weeks) was “half of the control”. Also, the “concentration at which inhibitory effects on growth of C. sativa seedlings start” value in the experiment on Cannabis sativa (minimal media with nitrate) was determined as 0.1 mM. Also, in the experiment on Papaver somniferum, the “reduction of fresh weight of P. somniferum seedlings vs control” value is “about 60%”.
